From US12637427B2, “ALDH-2 inhibitor compounds and methods of use” (Amygdala Neurosciences, Inc., priority 2022, dated 2026)

What was measured:
[1] = O'Malley et al. 2021; cited from earlier work
[2] = target: T1, MAO-B (Homo sapiens, UniProt P27338); assay: MAO-B inhibition assay; assay type: biochemical; details: 20 min pre-incubation; 10 μM = highest concentration tested; read-out: Enzymatic Assays IC50 MAO-B
T1 sequence (P27338 1-520): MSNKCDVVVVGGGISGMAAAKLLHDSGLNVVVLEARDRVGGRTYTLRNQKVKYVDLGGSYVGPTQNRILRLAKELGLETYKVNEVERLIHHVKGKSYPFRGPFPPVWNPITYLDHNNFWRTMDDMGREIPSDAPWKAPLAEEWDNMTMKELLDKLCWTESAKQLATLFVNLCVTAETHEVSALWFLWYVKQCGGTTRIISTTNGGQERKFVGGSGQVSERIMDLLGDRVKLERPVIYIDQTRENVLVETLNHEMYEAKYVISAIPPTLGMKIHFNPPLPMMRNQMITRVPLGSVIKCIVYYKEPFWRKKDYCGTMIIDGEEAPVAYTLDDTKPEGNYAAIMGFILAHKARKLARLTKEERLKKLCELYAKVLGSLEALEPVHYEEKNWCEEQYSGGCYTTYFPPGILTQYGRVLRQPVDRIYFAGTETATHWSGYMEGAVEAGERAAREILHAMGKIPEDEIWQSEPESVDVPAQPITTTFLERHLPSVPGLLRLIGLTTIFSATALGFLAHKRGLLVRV
Method: (§1) D. MAO-A and MAO-B inhibition assays: MAO assays included luminogenic MAO substrate, reaction buffers, Luciferin Detection, and a reconstitution buffer with esterase. The MAO reaction mixture used in the assay included microsome contained MAO-A (2 μg) or MAO-B (10 μg), 160 μM substrate for MAO-A or 16 μM substrate for MAO-B, MAO-A buffer (100 mM Hepes buffer, pH 7.5, 5% glycerol) or MAO-B buffer (100 mM Hepes, pH 7.5, 5% glycerol, 10% dimethyl sulfoxide) in a final volume of 30 μL. After 20 minutes of pre-incubation of the MAO-A or MAO-B enzyme with the test ALDH-2 inhibitor compound, the reaction was initiated by adding enzyme substrate and the […] reaction was allowed to proceed for 60 minutes. Reconstituted Luciferin Detection Reagent (30 μL) was then added is added to simultaneously stop the MAO reaction and convert the methyl ester derivative to luciferin and produce light. The amount of light produced is directly proportional to the activity of MAO. The mixtures were further incubated for 20 minutes and activity of the enzyme was determined using Perkin-Elmer Envision Reader.

[3] = system: HepaRG spheroids; assay: HepaRG 3D spheroid assay; assay type: cell-based; details: minimum effective concentration crossing vehicle control threshold of cell health marker; 100 μM = highest concentration tested
Description: See e.g., Walker et al., “The evolution of strategies to minimise the risk of human drug-induced liver injury (DILI) in drug discovery and development,” (2020) Archives of Toxicology, Vol. 94: 2559-2585, which is hereby incorporated by reference herein in its entirety. […] In applying the HepaRG spheroid assay analysis to determining the hepatoxic liability of ALDH-2 inhibitor compounds, consideration is made of the binding to plasma protein and the limitations to CNS penetration due to the blood-brain barrier.
E. HepaRG® 3D spheroid assay: The HepaRG 3D spheroid assay is described in Walker et al., “The evolution of strategies to minimise the risk of human drug-induced liver injury (DILI) in drug discovery and development,” (2020) Archives of Toxicology, Vol. 94: 2559-2585. Briefly, HepaRG® cells were seeded into ultra-low adhesion 96-well black walled clear bottomed spheroid microplates. […] At the end of the incubation period, the spheroids were loaded with the relevant dye/antibody for each cell health marker (spheroid count, spheroid size, DNA structure, mitochondrial mass, mitochondrial membrane potential, oxidative stress, glutathione content, and cellular ATP). The plates were then scanned using an automated fluorescent cellular imager, ArrayScan® (Thermo Scientific Cellomics).

[4] = target: T2, recombinant human ALDH-2 (Homo sapiens, UniProt P05091); assay: ALDH-2 inhibition assay; assay type: biochemical; details: 60 min pre-incubation; 10 μM = highest concentration tested; read-out: Enzymatic Assays IC50 ALDH2
T2 sequence (P05091 18-517): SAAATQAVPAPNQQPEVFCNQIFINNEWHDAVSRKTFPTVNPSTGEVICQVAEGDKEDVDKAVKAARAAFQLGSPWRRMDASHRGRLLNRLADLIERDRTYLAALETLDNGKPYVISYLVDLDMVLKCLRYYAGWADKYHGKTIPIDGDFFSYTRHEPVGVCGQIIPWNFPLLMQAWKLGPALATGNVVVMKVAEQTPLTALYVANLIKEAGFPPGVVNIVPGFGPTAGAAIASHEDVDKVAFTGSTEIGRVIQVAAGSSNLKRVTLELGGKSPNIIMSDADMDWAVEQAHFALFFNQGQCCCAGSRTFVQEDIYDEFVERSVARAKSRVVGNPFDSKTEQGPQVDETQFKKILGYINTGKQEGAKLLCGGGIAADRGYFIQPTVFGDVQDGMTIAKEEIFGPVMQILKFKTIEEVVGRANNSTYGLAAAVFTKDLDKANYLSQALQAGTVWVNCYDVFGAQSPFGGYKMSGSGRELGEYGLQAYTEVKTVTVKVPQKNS
Method: A. ALDH-2 inhibition assay: The ALDH-2 reaction mixture used in the assay contained 125 μM formaldehyde, 75 μM NAD+, 20 mM NaCl, 10 mM MgCl2, and 20 nM recombinant human ALDH-2 in 50 mM Hepes buffer, pH 7.5 in a final volume of 10 μL using 384-well Corning 3820 plates. After 60 min of pre-incubation of the test ALDH-2 inhibitor compound with ALDH-2, the reaction was started by adding NAD+ and formaldehyde and the assay reaction mixture was allowed to proceed for 60 minutes. Activity of the ALDH-2 enzyme was determined by monitoring NADH formation using Perkin-Elmer Envision Reader with excitation and emission wavelengths set at 340 and 460 nm, respectively.

[5] = target: T3, recombinant human ALDH-1 (Homo sapiens, UniProt P00352); assay: ALDH-1 inhibition assay; assay type: biochemical; details: 60 min pre-incubation; 10 μM = highest concentration tested; read-out: Enzymatic Assays IC50 ALDH-1
T3 sequence (P00352 1-501): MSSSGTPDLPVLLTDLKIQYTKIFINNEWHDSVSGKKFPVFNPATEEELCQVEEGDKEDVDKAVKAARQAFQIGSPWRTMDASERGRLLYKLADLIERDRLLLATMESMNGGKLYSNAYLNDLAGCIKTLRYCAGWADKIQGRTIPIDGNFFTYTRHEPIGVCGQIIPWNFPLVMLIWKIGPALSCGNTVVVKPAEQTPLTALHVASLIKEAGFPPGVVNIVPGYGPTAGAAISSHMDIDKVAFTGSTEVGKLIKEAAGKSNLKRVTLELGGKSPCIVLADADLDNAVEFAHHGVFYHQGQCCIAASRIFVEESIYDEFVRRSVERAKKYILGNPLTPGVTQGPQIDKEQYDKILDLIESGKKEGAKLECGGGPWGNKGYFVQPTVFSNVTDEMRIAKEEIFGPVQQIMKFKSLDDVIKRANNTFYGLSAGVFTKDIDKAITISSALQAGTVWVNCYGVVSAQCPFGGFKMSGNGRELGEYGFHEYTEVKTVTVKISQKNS
Method: B. ALDH-1 inhibition assay: The ALDH-1 reaction mixture used in the assay contained 100 μM formaldehyde, 2.5 mM NAD+, 20 mM NaCl, 10 mM MgCl2, 1 mM dithiothreitol (DTT; reducing agent), and 50 nM recombinant human ALDH-1 in 50 mM Hepes buffer, pH 7.5 in a final volume of 10 μL using 384-well Corning 3820 plates. After 60 min of pre-incubation of the test ALDH-2 inhibitor compound with ALDH-1, the reaction was started by adding NAD+ and formaldehyde and the assay reaction mixture was allowed to proceed for 60 minutes. Activity of the ALDH-1 enzyme was determined by monitoring NADH formation using Perkin-Elmer Envision Reader with excitation and emission wavelengths set at 340 and 460 nm, respectively.

[6] = target: T4, MAO-A (Homo sapiens, UniProt P21397); assay: MAO-A inhibition assay; assay type: biochemical; details: 20 min pre-incubation; 10 μM = highest concentration tested; read-out: Enzymatic Assays IC50 MAO-A
T4 sequence (P21397 1-527): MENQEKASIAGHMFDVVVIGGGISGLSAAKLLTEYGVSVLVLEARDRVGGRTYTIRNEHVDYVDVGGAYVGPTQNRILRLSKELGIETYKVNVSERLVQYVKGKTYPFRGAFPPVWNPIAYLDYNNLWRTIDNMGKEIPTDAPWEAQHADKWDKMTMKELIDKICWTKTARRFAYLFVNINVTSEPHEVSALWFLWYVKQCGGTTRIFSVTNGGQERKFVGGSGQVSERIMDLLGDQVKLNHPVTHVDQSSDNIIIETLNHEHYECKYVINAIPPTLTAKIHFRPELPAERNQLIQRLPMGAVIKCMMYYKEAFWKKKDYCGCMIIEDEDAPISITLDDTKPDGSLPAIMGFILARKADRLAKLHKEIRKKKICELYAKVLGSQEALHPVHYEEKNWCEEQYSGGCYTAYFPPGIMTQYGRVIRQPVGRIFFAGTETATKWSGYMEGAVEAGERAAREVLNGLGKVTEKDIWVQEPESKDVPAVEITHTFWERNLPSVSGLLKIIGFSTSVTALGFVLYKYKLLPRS
Method: as §1

[7] = target: T5, recombinant human ALDH-3 (Homo sapiens, UniProt P30838); assay: ALDH-3 inhibition assay; assay type: biochemical; details: 60 min pre-incubation; 10 μM = highest concentration tested; read-out: Enzymatic Assays IC50 ALDH-3
T5 sequence (P30838 1-453): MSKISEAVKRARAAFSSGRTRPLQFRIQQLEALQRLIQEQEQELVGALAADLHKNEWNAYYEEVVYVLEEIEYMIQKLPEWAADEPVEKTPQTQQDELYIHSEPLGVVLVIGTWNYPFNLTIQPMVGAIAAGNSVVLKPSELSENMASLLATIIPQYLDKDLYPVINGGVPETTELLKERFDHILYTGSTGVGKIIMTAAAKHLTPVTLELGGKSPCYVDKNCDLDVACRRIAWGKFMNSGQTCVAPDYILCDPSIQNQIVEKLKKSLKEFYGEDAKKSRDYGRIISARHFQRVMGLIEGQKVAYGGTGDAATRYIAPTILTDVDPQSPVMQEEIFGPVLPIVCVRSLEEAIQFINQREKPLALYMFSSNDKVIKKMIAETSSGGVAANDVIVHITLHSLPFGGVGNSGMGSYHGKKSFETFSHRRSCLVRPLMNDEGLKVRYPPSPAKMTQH
Method: ALDH-3 inhibition assay: The ALDH-3 reaction mixture used in the assay contained 200 μM benzaldehyde, 2.5 mM NAD+, 20 mM NaCl, 10 mM MgCl2, and 10 nM recombinant human ALDH-3 in 50 mM Hepes buffer, pH 7.5 in a final volume of 10 μL using 384-well Corning 3820 plates. After 60 min of pre-incubation of the test ALDH-2 inhibitor compound with ALDH-3, the reaction was started by adding NAD+ and benzaldehyde and the assay reaction mixture was allowed to proceed for 60 minutes. Activity of the ALDH-3 enzyme was determined by monitoring NADH formation using Perkin-Elmer Envision Reader with excitation and emission wavelengths set at 340 and 460 nm, respectively.

SMILES | IC50 [2] [µM] | HepaRG 3D Spheroid MEC [3] | IC50 [4] [µM] | IC50 [5] [µM] | IC50 [6] [µM] | IC50 [7] [µM] | hepatotoxicity in humans [1]
O=C(NCc1ccc(-c2cc[nH]c(=O)c2)cc1)c1c(Cl)cccc1Cl [2,6-dichloro-N-[4-(2-oxo-1,2-dihydro-pyridin-4-yl)-benzyl]-benzamide] | – | – | – | – | – | – | high levels of hepatotoxicity
Cc1nccc(Cl)c1C(=O)NCc1ccc(-c2[nH]c(=O)ccc2F)cc1 [(1h), 4-Chloro-N-(4-(3-fluoro-6-oxo-1,6-dihydropyridin-2-yl)benzyl)-2-methylnicotinamide] | > 10 | 53.9 µM | 0.1 | > 10 | > 10 | – | –
O=C(NCc1ccc(-c2cccc(=O)[nH]2)nc1)c1c(Cl)cccc1Cl [(1j), 2,6-Dichloro-N-((6′-oxo-1′,6′-dihydro-[2,2′-bipyridin]-5-yl)methyl)benzamide] | > 10 | 5.06 µM | 0.007 | > 10 | > 10 | – | –
Cc1nccc(Cl)c1C(=O)NCc1ccc(-c2cccc(=O)[nH]2)nc1 [(1m), 4-Chloro-2-methyl-N-((6′-oxo-1′,6′-dihydro-[2,2′-bipyridin]-5-yl)methyl)nicotinamide] | > 10 | – | 0.98 | > 10 | > 10 | > 10 | –
O=C(NCc1ccc(-c2[nH]c(=O)ccc2F)cc1)c1ccccc1Cl [Compound (1f), 2-Chloro-N-(4-(3-fluoro-6-oxo-1,6-dihydropyridin-2-yl)benzyl)benzamide] | > 10 | – | 0.329 | > 10 | > 10 | > 10 | –

Further lines, with some results ahead:

IC50 [2] [µM] | HepaRG 3D Spheroid MEC [3] | IC50 [4] [µM] | IC50 [5] [µM] | IC50 [6] [µM] | IC50 [7] [µM] | SMILES | hepatotoxicity in humans [1]
> 10 | 15.3 µM | 0.004 | > 10 | > 10 | – | O=C(NCc1ccc(-c2[nH]c(=O)ccc2F)nc1)c1c(Cl)cccc1Cl [(1i), 2,6-dichloro-N-((3′-fluoro-6′-oxo-1′,6′-dihydro-[2,2′-bipyridin]-5-yl)methyl)benzamide] | –
> 10 | 7.48 µM | 0.031 | > 10 | > 10 | – | Cc1cccc(Cl)c1C(=O)NCc1cnc(-c2cccc(=O)[nH]2)nc1 [(1n), 2-Chloro-6-methyl-N-((2-(6-oxo-1,6-dihydropyridin-2-yl)pyrimidin-5-yl)methyl)benzamide] | –
> 10 | No Effect | 0.027 | > 10 | > 10 | – | O=C(NCc1ccc(-c2[nH]c(=O)ccc2F)cc1)c1c(Cl)cccc1Cl [Compound (1d), 2,6-dichloro-N-(4-(3-fluoro-6-oxo-1,6-dihydropyridin-2-yl)benzyl)benzamide] | –
> 10 | 50.4 µM | 0.009 | > 10 | > 10 | – | Cc1cccc(Cl)c1C(=O)NCc1ccc(-c2[nH]c(=O)ccc2F)cc1 [Compound (1e), 2-Chloro-N-(4-(3-fluoro-6-oxo-1,6-dihydropyridin-2-yl)benzyl)-6-methylbenzamide] | –
